Reference: patent publication US7585892B2, “Compound for promoting the growth of neural cells” (Naturewise Biotech & Medicals Corporation, priority 2006, dated 2009)

Key:
Type in all cases: cell-based, Wistar rat
[1] = system: cortical neurons; assay: Neurite length of cortical neurons at low cellular density (Example 4); settings: 38 cells/mm^2, 5 days, control cells all dead
Protocol: (§1) Cells obtained from the suspension prepared in Example 1 were cultivated at a density of 38 cells/mm^2 in 6-well plates coated with 30 μg/ml poly-D-lysine (Sigma) at 37° C., 5% CO2 and 95% relative humidity. The growth media contained compounds A, B, D, and G respectively and the growth media added with 5 μl of DMSO were used as control. The differentiated cells are categorically called cortical neurons.
The experiments were repeated three times. After cultivating for 5 days, the cells were observed under microscope and the length of the neurites was measured.

[2] = system: cortical neurons; assay: Survival of cortical neurons, MTT assay (Example 2); settings: 300 cells/mm^2, 5 days, vs DMSO control
Protocol: as §1, with “cultivated” for “cultivated at a density of 38 cells/mm^2”, “μg/ml of” for “μg/ml”, “(Sigma) at 300 cells/mm^2 and cultivated” for “(Sigma)”, “D, E, F, G,” for “D,”, “and H” for “and G”, “cells after cultivation were” for “cells are”
The experiments were repeated three times. After cultivating for 5 days, live cells were counted by a known cell-counting method (MTT assay) and the absorbance was read at 540 nm.

[3] = system: neural stem cells; assay: Differentiation of NSCs from neurospheres, MAP-2 immunofluorescent staining (Example 5); settings: added in the beginning, with or without adding again at seeding; 3 days + 3 days
Protocol: In the beginning of cultivating NSCs, either compound A or EGF was added into the growth media. The cells were cultivated for 3 days and the cells would aggregate to form neurospheres. One hundred μl of the cell suspension was aspirated and diluted to 1 ml. 250 μl of the supernatant which contained neurospheres was aspirated and placed on the cover slides coated with 30 μg/ml poly-D-lysine (Sigma). After all the cells had been attached onto the slides, the media was removed and replaced with the cultivating media containing compound A (FIG. 5A), EGF (FIG. 5C), or none of the growth factors (FIG. 5B, compound A in the beginning; FIG. 5D, EGF in the beginning). The cells were cultivated for another 3 days at the same condition as described above so that the cells would differentiate into cortical neurons.
The cells were stained with a known immunofluorescent staining method. To stain the neurons, a neurological marker of MAP-2 (microtubule-associated protein 2) antibody was used as the primary antibody and a fluorescent material-labeled mouse immunoglobulin that identified primary antibody was used as the second antibody. After the primary antibody that had been bound onto the neurons was identified and bound by the secondary antibody, the neurons emit fluorescent light under the excitation of a specific light source.

[4] = system: neural stem cells; assay: Continuous cultivation of NSCs for 30 days, cell morphology (Example 7)
Protocol: As in Example 1, the NSCs were cultivated continuously and the growth media were replaced every seven days. DMSO-added growth media were used as the negative control. After 30 days, 100 μl of the cell suspension was aspirated and diluted to 1 ml. 250 μl of the supernatant was aspirated and placed on the slides coated with 30 μg/ml poly-D-lysine (Sigma). The cell morphology was observed thereafter under a microscope.

[5] = system: neural stem cells; assay: Differentiation of NSCs with compound D and EGF, immunofluorescent staining (Example 6); settings: compound D and EGF in the beginning, only the named substance at seeding
Protocol: The procedures were similar to Example 5. However, in the beginning of cultivating the neural stem cells, both compound D and EGF were added into the media. After all the cells had been attached onto the slides, the media were removed and replaced with the cultivating media containing compound D (FIG. 6B), EGF (FIG. 6C), none of the growth factors (FIG. 6D), or both compound D and EGF (FIG. 6A). The cells were cultivated for another 3 days and the cell morphology was observed thereafter by using immunofluorescent staining technique.

SMILES	growth of neurons and neurites under microscope ([1]; 5 μM)	live cells, MTT absorbance at 540 nm [2]	growth of neurons and neurites under microscope ([1]; 2.5 μM)	cell type after differentiation (MAP-2 staining) [3]	sphere formation of neural stem cells after 30 days ([4]; media replaced every seven days, control almost no surviving cells)	differentiation after 30 days culture plus another 3 days (immunofluorescence) ([4]; neurospheres grown 30 days with compound)	cell type after differentiation [5]
C/C(=C\Cc1cc([C@@H]2CC(=O)c3c(O)cc(O)cc3O2)cc(O)c1O)CCCC(C)(C)O [compound B]	continuous growth of the neurons and the extension of the neurites can be observed	–	–	–	–	–	–
C/C(=C\Cc1c([C@@H]2CC(=O)c3c(O)cc(O)cc3O2)ccc(O)c1O)CCCC(C)(C)O [compound A]	–	best results	continuous growth of the neurons and the extension of the neurites can be observed	the cells will differentiate into neurons	can maintain the characteristics of forming spherical clusters	differentiating normally into neurons with the continuous outgrowth of neurites	–
CC(C)=CCC/C(C)=C/Cc1c([C@@H]2CC(=O)c3c(O)cc(O)cc3O2)ccc(O)c1O [compound D]	continuous growth of the neurons and the extension of the neurites can be observed	best results	–	–	–	–	the cells will differentiate into neurons
CC(C)=CCC/C(C)=C/Cc1c(O)cc2c(c1O)C(=O)C[C@@H](c1ccc(O)c(O)c1CC=C(C)C)O2 [compound G]	continuous growth of the neurons and the extension of the neurites can be observed	best results	–	–	–	–	–
